The results in this text go back to ChEMBL document CHEMBL3271982, “Synthesis and antiinflammatory properties of N-substituted 4,5-dioxopyrrolidine-3-carboxanilides” (J Med Chem, 1976).

Molecules are shown by their SMILES. Activity calls are given as the source filed them. The rule behind the calls is not given here.

For the first data set, the system named is Rattus norvegicus. Briefly: Antiinflammatory activity in rat assessed as inhibition of carrageenin-induced foot edema at 33 mg/kg, po. It counts as functional, organism-based. Also noted: dose 33 mg/kg. On the technique in general: Carrageenan injected into the paw causes an acute inflammation.
Turning to `CCOC(=O)c1ccccc1NC(=O)C1CN(C)C(=O)C1=O` (stereo unspecified), the inhibition result was “Active”.

For the compound `CN1CC(C(=O)Nc2ccc(Cl)cc2)C(=O)C1=O` (stereo unspecified), the inhibition entry is “Active”.

As for `CN1CC(C(=O)Nc2ccc(C(F)(F)F)cc2)C(=O)C1=O` (stereo unspecified), the inhibition result was “Active”.

On to `COc1ccc(NC(=O)C2CN(C)C(=O)C2=O)cc1` (stereo unspecified), for which the inhibition entry is “Active”.

On to `O=C(Nc1ccccc1C(F)(F)F)C1CN(c2ccccc2)C(=O)C1=O` (stereo unspecified), for which the inhibition entry is “Active”.

Take `O=C(Nc1ccc(Cl)cc1)C1CN(c2ccccc2)C(=O)C1=O` (stereo unspecified): the inhibition entry was “Active”.

Take `COc1ccccc1NC(=O)C1CN(c2ccccc2)C(=O)C1=O` (stereo unspecified): the inhibition entry was “Active”.

`Cc1ccc(NC(=O)C2CN(C)C(=O)C2=O)cc1` (stereo unspecified): the inhibition result was “Active”.

For the compound `CN1CC(C(=O)Nc2ccccc2)C(=O)C1=O` (stereo unspecified), the inhibition entry is “Active”.

As for `COc1ccccc1NC(=O)C1CN(C)C(=O)C1=O` (stereo unspecified), the inhibition entry was “Active”.

Turning to `CN1CC(C(=O)Nc2ccc(F)cc2)C(=O)C1=O` (stereo unspecified), the inhibition entry was “Active”.

`O=C(Nc1ccccc1)C1CN(c2ccccc2)C(=O)C1=O` (stereo unspecified): the inhibition entry was “Active”.

For `O=C(Nc1ccccc1Cl)C1CN(c2ccccc2)C(=O)C1=O` (stereo unspecified), the inhibition entry is “Active”.

As for `O=C(Nc1ccc(C(F)(F)F)cc1)C1CN(c2ccccc2)C(=O)C1=O` (stereo unspecified), the inhibition result was “Active”.

For `COc1ccc(NC(=O)C2CN(c3ccccc3)C(=O)C2=O)cc1` (stereo unspecified), the inhibition result was “Active”.

For a further data set, the system named is Rattus norvegicus. In words: Antiinflammatory activity in rat assessed as inhibition of carrageenin-induced foot edema at 100 mg/kg, po. It counts as functional.
As for `CC(=O)Oc1ccccc1C(=O)O` [ASPIRIN], the inhibition in vivo at 100 mg/kg was 50%.

Tested on in a further data set: not listed separately
Briefly: Ionization constant, pKa of the compound. It counts as physicochemical.
On to `CCOC(=O)c1ccccc1NC(=O)C1CN(C)C(=O)C1=O` (stereo unspecified), for which the pKa worked out at 6.49.

In turn, `CN1CC(C(=O)Nc2ccc(Cl)cc2)C(=O)C1=O` (stereo unspecified) gave a pKa of 5.51.

`COc1ccc(NC(=O)C2CN(C)C(=O)C2=O)cc1` (stereo unspecified): the pKa stood at 5.84.

For `O=C(Nc1ccccc1C(F)(F)F)C1CN(c2ccccc2)C(=O)C1=O` (stereo unspecified), the pKa is 5.87.

Regarding `COc1ccccc1NC(=O)C1CN(c2ccccc2)C(=O)C1=O` (stereo unspecified), the pKa was found to be 6.19.

The compound `Cc1ccc(NC(=O)C2CN(C)C(=O)C2=O)cc1` (stereo unspecified) had a pKa of 5.79.

In turn, `CN1CC(C(=O)Nc2ccccc2)C(=O)C1=O` (stereo unspecified) came in with a pKa of 5.86.

Consider `COc1ccccc1NC(=O)C1CN(C)C(=O)C1=O` (stereo unspecified), for which the pKa worked out at 6.08.

Consider `CN1CC(C(=O)Nc2ccc(F)cc2)C(=O)C1=O` (stereo unspecified), for which the pKa is 5.55.

`O=C(Nc1ccccc1)C1CN(c2ccccc2)C(=O)C1=O` (stereo unspecified) yielded a pKa of 5.58.

Usually inhibition in vivo stands for the relative decrease from the control value, in per cent. What is called pKa is the negative logarithm of the acid dissociation constant.
